Assay results as given in US6077519A, “Methods for isolation and use of T cell epitopes eluted from viable cells in vaccines for treating cancer patients” (University of Pittsburgh, priority 1997, dated 2000).
“Also recorded” adds a separate entry of the source. Ends that are not written are not given here.

B1: recombinant murine interleukin 12 (protein, UniProt P43431 23-215; P43432 23-335, looked up)
Interleukin-12 subunit alpha: RVIPVSGPARCLSQSRNLLKTTDDMVKTAREKLKHYSCTAEDIDHEDITRDQTSTLKTCLPLELHKNESCLATRETSSTTRGSCLPPQKTSLMMTLCLGSIYEDLKMYQTEFQAINAALQNHNHQQIILDKGMLVAIDELMQSLNHNGETLRQKPPVGEADPYRVKMKLCILLHAFSTRVVTINRVMGYLSSA
Interleukin-12 subunit beta: MWELEKDVYVVEVDWTPDAPGETVNLTCDTPEEDDITWTSDQRHGVIGSGKTLTITVKEFLDAGQYTCHKGGETLSHSHLLLHKKENGIWSTEILKNFKNKTFLKCEAPNYSGRFTCSWLVQRNMDLKFNIKSSSSSPDSRAVTCGMASLSAEKVTLDQRDYEKYSVSCQEDVTCPTAEETLPIELALEARQQNKYENYSTSFFIRDIIKPDPPKNLQMKPLKNSQVEVSWEYPDSWSTPHSYFSLKFFVRIQRKKEKMKETEEGCNQKGAFLVEKTSTEVQCKGGNVCVQAQDRYYNSSCSKWACVPCRVRS

Legend:
HLA-A2 [1] = molecular target: T1, HLA-A2 (Homo sapiens, UniProt P04439); assay: HLA-A2 stabilization assay on T2 cells; format: binding; conditions: MA2.1
T1 construct: peptide stabilization read with MA2.1 by flow cytometry

Mel 624 [2] = assay: induction of anti-melanoma CTL from normal donor PBMC by peptide-pulsed autologous DC, lysis of Mel 624; format: cell-based, human; conditions: for Normal PBL Response (responders/donors): lysis of Mel 624 >20% at E:T 10:1, >80% inhibited by BB7.2; for Peak week of CTL reactivity, Normal PBL / number of stimulations to induce anti-melanoma CTL: normal donors; for lysis of Mel 624 by induced anti-melanoma CTL: E:T 10:1, normal donors
Experimental: Peripheral blood mononuclear cells ("PBMC") were obtained after density centrifugation on Ficoll-Hypaque gradients per the manufacturer's protocol (LSM, Organon-Teknika, Durham, N.C.). […] Non-adherent cells were frozen in liquid nitrogen in 90% fetal bovine serum/10% DMSO and were retained as T cell enriched responder populations. Plastic adherent cells were cultured for 5-7 days in AIM-V medium supplemented with 1000 U rIL-4/ml+1000 U rGM-CSF/ml at 37° C., 5% CO2 and served as the source of autologous dendritic cells. No medium was added or removed during this culture period. […] Gradient interface cells were harvested, washed with HBSS, and used in phenotypic and functional assays, as outlined below. Cells generated in this way were determined to be greater than 90% DC based on morphology and the expression of a CD1a+, CD1b+, CD1c+, CD3-, CD14-, CD16-, CD20-, CD40+, CD80+, CD83+, CD86+, MHC class II+phenotype assessed by flow cytometry.
(§1) Plastic non-adherent DC (1-2×10^6) were harvested from IL-4+GM-CSF cultures on days 7, 14, 21, and 28, and washed twice with HBSS. […] Peptide-pulsing (10 μM final peptide concentration) was allowed to proceed for 2 hours at 37° C., at which time, the cells were washed twice with HBSS, resuspended in 1 ml of AIM-V and irradiated (2500 rad) using a cesium source. Day 7 peptide-pulsed DC were used to "prime" freshly-thawed, autologous PBMC (plastic adherent depleted) responders at a 20:1 responder-to-stimulator ratio. Responding T cells were restimulated weekly (for 4 weeks) using irradiated, peptide-pulsed autologous DC at a 20:1 responder-to-restimulator ratio in AIM-V medium containing 60 IU/ml rhIL-2 (Chiron, Emeryville, Calif.).
(§2) Four hour chromium release assays were performed as described previously. Target cells were labeled with 100 μCi (Na2^51 CrO4, Dupont-New England Nuclear, Bedford, Mass.) at 37° C. for 1-2 hours prior to being washed three times with HBSS. 10^4 51 Cr-labeled cells were added to each target well±effector cells for 4 h, 37° C., 5% CO2 in a total volume of 200 μl.
PBMC responder T cells derived from normal donors (n=12) were repetitively stimulated weekly for 1-4 weeks with irradiated, autologous cultured dendritic cells pre-pulsed with either no peptide or individually pulsed with the previously identified, HLA-A2-presented melanoma peptides listed in Table 9, below.
Autologous, cultured d7 IL-4+GM-CSF PB-DC were pulsed with the indicated peptides for 2h at room temperature prior to washing and use as stimulators for CTL induction in vitro. […] 12 HLA-A2+ normal donors and 10 HLA-A2+ patients with metastatic melanoma were screened. […] Peak week of CTL reactivity is noted in parentheses.

Mel 624 [3] = assay: induction of anti-melanoma CTL from melanoma patient PBMC by peptide-pulsed autologous DC, lysis of Mel 624; format: cell-based, human; conditions: for Patient PBL Response (responders/patients): lysis of Mel 624 >20% at E:T 10:1, >80% inhibited by BB7.2
Text: Heparinized peripheral blood was obtained by venipuncture from 15 HLA-A2^+ normal donors and 10 HLA-A2^+ donors with AJCC Stage III or IV melanoma treated at the University of Pittsburgh Cancer Institute/University of Pittsburgh School of Medicine. Peripheral blood mononuclear cells ("PBMC") were obtained after density centrifugation on Ficoll-Hypaque gradients per the manufacturer's protocol (LSM, Organon-Teknika, Durham, N.C.). […] Non-adherent cells were frozen in liquid nitrogen in 90% fetal bovine serum/10% DMSO and were retained as T cell enriched responder populations. Plastic adherent cells were cultured for 5-7 days in AIM-V medium supplemented with 1000 U rIL-4/ml+1000 U rGM-CSF/ml at 37° C., 5% CO2 and served as the source of autologous dendritic cells. No medium was added or removed during this culture period. […] Gradient interface cells were harvested, washed with HBSS, and used in phenotypic and functional assays, as outlined below. Cells generated in this way were determined to be greater than 90% DC based on morphology and the expression of a CD1a+, CD1b+, CD1c+, CD3-, CD14-, CD16-, CD20-, CD40+, CD80+, CD83+, CD86+, MHC class II+phenotype assessed by flow cytometry.
as §1, §2
Autologous, cultured d7 IL-4+GM-CSF PB-DC were pulsed with the indicated peptides for 2h at room temperature prior to washing and use as stimulators for CTL induction in vitro. […] 12 HLA-A2+ normal donors and 10 HLA-A2+ patients with metastatic melanoma were screened.
In parallel experiments, PBMC derived from 10 patients diagnosed with AJCC stage III or IV melanoma were stimulated with autologous DC pulsed with these same series of peptides.

T2 target cells = assay: CTL lysis of p939-pulsed T2 target cells; format: cell-based, human; conditions: without exogenous β2 -m and MA2.1
Experimental: (§3) Peptide loading was facilitated by the presence of the β2 -m and MA2.1 reagents as described by Zeh, H. J., et al., Hum. […] The cells were then incubated for 2 hours at room temperature.

A42-clone = conditions: read-out: half-maximal sensitization for lysis, T2, E:T 10:1
Experimental: as §3

TIL 5403 = conditions: TIL 5403, data not shown
TIL 1235 = conditions: TIL 1235, data not shown
CTL clone A42 = conditions: CTL clone A42, data not shown
GL1 CTL = format: cell-based, human
HLA-A2 [4] = molecular target: T1, HLA-A2; conditions: reported by Cox et al.; cited from earlier work
MCA205 fibrosarcoma = assay: in vivo therapy of established MCA205 tumors in C57BL/6 mice; parameters: species or system mouse; conditions: day 4 (but not day 8) tumor models
Experimental: Before being used in vaccines, DC were pulsed overnight with crude, unfractionated, acid-eluted peptides derived from relevant tumors or control syngeneic spleens. Peptide-pulsed DC were extensively washed and then irradiated (3,000 rads) before i.v. injection in the tail vein of tumor-bearing animals. In the fibrocarcinoma MCA205 and mammary adenocarcinoma TS/A tumor models, animals were injected three to four times, starting at day 4 or day 8 after tumor establishment and subsequently, every 4 days, with 3-5×10^5 DC pulsed with peptides. Alternatively, in the C3 tumor model, animals were injected on days 14, 21, and 28 after initial intradermal (i.d.) tumor inoculation.
1 million BM-DC were pulsed with peptides derived from 10^8 to 10^9 cells (tumor or spleen) in a total volume of 1-2 ml of DC media overnight at 37° C., 55 CO2. Splenocytes freshly harvested from B6 animals were used as a cellular source of irrelevant peptides.
Twice the minimal tumorigenic dose of tumor cells (2×10^5 MCA205, 10^5 TS/A, or 2×10^6 C3) were injected intradermally ("i.d.") in the right flank of mice. […] The mean tumor size was monitored biweekly. […]
50 μg of CTLA4-IgG1 was admixed with DC-MCA205 or DC-TS/A in vitro, and the mixture was then administered in the tail vein of tumor-bearing animals (three to four injections every 4 days). […] Depletion of CD4^+ and CD8^+ T cells was monitored by flow cytometry. […]

T1 sequence (P04439 25-365): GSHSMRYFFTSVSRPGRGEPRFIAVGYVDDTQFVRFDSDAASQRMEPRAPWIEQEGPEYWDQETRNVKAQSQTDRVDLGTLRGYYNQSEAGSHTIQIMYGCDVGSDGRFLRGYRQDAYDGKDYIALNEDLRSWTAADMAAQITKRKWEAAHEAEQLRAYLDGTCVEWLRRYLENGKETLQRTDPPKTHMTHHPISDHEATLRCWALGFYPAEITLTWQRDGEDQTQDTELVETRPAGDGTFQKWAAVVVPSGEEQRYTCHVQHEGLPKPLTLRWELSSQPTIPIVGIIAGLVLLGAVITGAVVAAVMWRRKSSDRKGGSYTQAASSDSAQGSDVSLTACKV
T1 sequence (P61769 21-119 partner): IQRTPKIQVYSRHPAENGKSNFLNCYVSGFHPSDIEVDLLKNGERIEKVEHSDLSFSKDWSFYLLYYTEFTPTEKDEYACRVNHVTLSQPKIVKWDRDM

Molecule | HLA-A2 stabilization / binding (HLA-A2 [1]) | Normal PBL Response (responders/donors) (Mel 624 [2]) | Patient PBL Response (responders/patients) (Mel 624 [3]) | Peak week of CTL reactivity, Patient PBL (Mel 624 [3]; melanoma patients) | Peak week of CTL reactivity, Normal PBL (Mel 624 [2]) | further results
Asp-Gly-Leu-Ala-Pro-Pro-Gln-His-Leu-Ile-Arg (DGLAPPQHLIR) [p53 186-196] | stabilized HLA-A2 very poorly | – | – | – | – | –
FLWGPRALV [MAGE-3] | – | 0/4 | 1/3 | 3 wk | – | –
ILTVILGVL [p939] | less effective; also recorded: low affinity | 9/12 | 9/10 | 3-4 wk | 3-4 wk | CTL reactivity over background (T2 target cells): 5-10%; EC50 (A42-clone): ~3 nM; recognition and lysis of peptide-pulsed T2 cells (TIL 5403): able to recognize and lyse T2 cells; lowest dose with peptide-specific release of interferon-γ (TIL 1235): 1 pM; lowest dose with peptide-specific release of interferon-γ (CTL clone A42): 1 pM
LLDGTATLRL [gp100 457-466] | – | 0/12 | 0/10 | – | – | –
Lys-Gly-Ile-Leu-Gly-Phe-Val-Phe--Thr-Leu-Thr-Val [Flu M1] | – | – | – | – | – | GL1 lysis of peptide-pulsed HLA-A2+ targets (GL1 CTL): lysed
MLLAVLYCL [Tyrosinase 1-9] | – | 1/12 | 0/10 | – | – | –
Tyr-Leu-Glu-Pro-Gly-Pro-Val-Thr-Ala [gp100 280-288] | comparable | 9/12 | 8/10 | 3-4 wk | 3-4 wk | lysis of Mel 624 by induced anti-melanoma CTL (Mel 624 [2]): greater than 20%; number of stimulations to induce anti-melanoma CTL (Mel 624 [2]): 2-3 stimulations; immunodominance by kinetics and magnitude of response (Mel 624 [3]; melanoma patients): immunodominant epitopes; binding to HLA-A2 (HLA-A2 [4]): intermediate-to-low affinity
YMDGTMSQV [Tyrosinase 368-376] | – | 7/12 | 6/10 | – | 3-4 wk | lysis of Mel 624 by induced anti-melanoma CTL (Mel 624 [2]): greater than 20%; number of stimulations to induce anti-melanoma CTL (Mel 624 [2]): 2-3 stimulations
B1 | – | – | – | – | – | therapeutic effect alone (MCA205 fibrosarcoma): beneficial therapeutic effect
